US20220055989A1, “CONDENSED PYRROLES AS NOVEL BROMODOMAIN INHIBITORS” (ALBERT LUDWING UNIVERSITÄT FREIBURG, priority 2018, published 2022)

Key:
[1] = target: T1, FALZ (Homo sapiens, UniProt Q12830); test: Bromodomain assay % Ctrl determination FALZ; conditions: lower numbers indicate a stronger binding
T1 construct: T7 phage strains displaying bromodomains were grown in parallel; host or cells: T7 phage grown in E. coli host derived from BL21
Description: (§1) Compounds that bind the bromodomain prevent its binding to the immobilized ligand thus reducing the amount of protein captured. […] Hits are identified by measuring the amount of bromodomain captured in test versus control samples. Bromodomain assays for % Ctrl determination: T7 phage strains displaying bromodomains were grown in parallel in 24-well blocks in an E. coli host derived from the BL21 strain. E. coli were grown to log-phase and infected with T7 phage from a frozen stock (multiplicity of infection=0.4) and incubated with shaking at 32° C. until lysis (90-150 minutes). The lysates were centrifuged (5,000×g) and filtered (0.2 μm) to remove cell debris. […] The liganded beads were blocked with excess biotin and washed with blocking buffer (SeaBlock (Pierce), 1% BSA, 0.05% Tween 20, 1 mM DTT) to remove unbound ligand and to reduce non-specific phage binding. […] Test compounds were prepared as 1000× stocks in 100% DMSO and subsequently diluted 1:25 in monoethylene glycol (MEG). The compounds were then diluted directly into the assays such that the final concentrations of DMSO and MEG were 0.1% and 2.4%, respectively. All reactions were performed in polypropylene 384-well plates in a final volume of 0.02 ml. […] The bromodomain concentration in the eluates was measured by qPCR. […]

[2] = target: T2, TAF1L(2) (Homo sapiens, UniProt Q8IZX4); test: Bromodomain assay % Ctrl determination TAF1L(2); conditions: lower numbers indicate a stronger binding
T2 construct: FALZ, PBRM1-BD2, BPRM1-BDS, TAF1-BD2, TAF1L-BD2; host or cells: T7 phage grown in E. coli host derived from BL21
Description: as §1

[3] = target: T3, BRD7 (Homo sapiens, UniProt Q9NPI1); test: Bromodomain assay % Ctrl determination BRD7; conditions: lower numbers indicate a stronger binding
T3 construct: T7 phage strains displaying bromodomains were grown; host or cells: T7 phage in E. coli derived from BL21
T3 sequence (Q9NPI1 131-235 limits assumed): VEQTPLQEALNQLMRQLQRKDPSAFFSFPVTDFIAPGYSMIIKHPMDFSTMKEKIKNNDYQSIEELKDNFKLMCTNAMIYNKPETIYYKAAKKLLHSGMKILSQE
Description: as §1

[4] = target: T4, ATAD2B (Homo sapiens, UniProt Q9ULI0); test: Bromodomain assay % Ctrl determination ATAD2B; conditions: lower numbers indicate a stronger binding
T4 construct: T7 phage strains displaying bromodomains were grown in parallel; made in house; host or cells: T7 phage grown in an E. coli host derived from the BL21 strain
Description: as §1

[5] = target: T5, PBRM1(5) (Homo sapiens, UniProt Q86U86); test: Bromodomain assay % Ctrl determination PBRM1(5); conditions: lower numbers indicate a stronger binding
T5 construct: T7 phage strains displaying bromodomains were grown in parallel; host or cells: T7 phage grown in E. coli host derived from BL21
Description: as §1

[6] = target: T6, BRD2(2) (Homo sapiens, UniProt P25440); test: Bromodomain assay % Ctrl determination BRD2(2); conditions: lower numbers indicate a stronger binding
T6 construct: T7 phage strains displaying bromodomains were grown in parallel; made in house; host or cells: T7 phage grown in an E. coli host derived from the BL21 strain
Description: as §1

[7] = target: T7, CECR2 (Homo sapiens, UniProt Q9BXF3); test: Bromodomain assay % Ctrl determination CECR2; conditions: lower numbers indicate a stronger binding
T7 construct: T7 phage strains displaying bromodomains were grown; host or cells: T7 phage in E. coli derived from BL21
Description: as §1

[8] = target: T8, BRDT(1, 2) (Homo sapiens, UniProt Q58F21); test: BROMOscan Kd determination BRDT(1, 2); type: binding
T8 construct: T7 phage strains displaying bromodomains were grown; host or cells: T7 phage in E. coli derived from BL21
Description: (§2) Bromodomain profiling was carried out on the basis of BROMOscan™. This platform accounted for the indirect determination of the dissociation constants between 19 bromodomains and the compound of formula (13), by binding competition against a reference immobilized ligand. Compounds that bind the bromodomain prevent its binding to the immobilized ligand thus reducing the amount of protein captured. […] Hits are identified by measuring the amount of bromodomain captured in test versus control samples. Bromodomain assays for Kd determination: T7 phage strains displaying bromodomains were grown in parallel in 24-well blocks in an E. coli host derived from the BL21 strain. E. coli were grown to log-phase and infected with T7 phage from a frozen stock (multiplicity of infection=0.4) and incubated with shaking at 32° C. until lysis (90-150 minutes). The lysates were centrifuged (5,000×g) and filtered (0.2 μm) to remove cell debris. […] Kds were determined using an 11-point 3-fold compound dilution series with one DMSO control point. […] The bromodomain concentration in the eluates was measured by qPCR. […] Most Kds were determined using a compound top concentration=10,000 nM. […] Binding Constants (Kds): Binding constants (Kds) were calculated with a standard dose-response curve using the Hill equation: The Hill Slope was set to −1. […]

[9] = target: T9, EP300 (Homo sapiens, UniProt Q09472); test: BROMOscan Kd determination EP300; type: binding
T9 construct: T7 phage strains displaying bromodomains were grown; host or cells: T7 phage in E. coli derived from BL21
T9 sequence (Q09472 1049-1156 limits assumed): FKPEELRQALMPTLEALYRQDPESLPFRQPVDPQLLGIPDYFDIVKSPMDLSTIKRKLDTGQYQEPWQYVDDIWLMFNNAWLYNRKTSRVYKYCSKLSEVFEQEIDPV
Description: Bromodomain profiling was carried out on the basis of BROMOscan™. This platform accounted for the indirect determination of the dissociation constants between 19 bromodomains and the compound of formula (13), by binding competition against a reference immobilized ligand. Compounds that bind the bromodomain prevent its binding to the immobilized ligand thus reducing the amount of protein captured. […] Hits are identified by measuring the amount of bromodomain captured in test versus control samples. Bromodomain assays for Kd determination: T7 phage strains displaying bromodomains were grown in parallel in 24-well blocks in an E. coli host derived from the BL21 strain. E. coli were grown to log-phase and infected with T7 phage from a frozen stock (multiplicity of infection=0.4) and incubated with shaking at 32° C. until lysis (90-150 minutes). The lysates were centrifuged (5,000×g) and filtered (0.2 μm) to remove cell debris. […] The liganded beads were blocked with excess biotin and washed with blocking buffer (SeaBlock (Pierce), 1% BSA, 0.05% Tween 20, 1 mM DTT) to remove unbound ligand and to reduce non-specific phage binding. […] Test compounds were prepared as 1000× stocks in 100% DMSO. Kds were determined using an 11-point 3-fold compound dilution series with one DMSO control point. All compounds for Kd measurements are distributed by acoustic transfer (non-contact dispensing) in 100% DMSO. The compounds were then diluted directly into the assays such that the final concentration of DMSO was 0.09%. All reactions performed in polypropylene 384-well plates. Each was a final volume of 0.02 ml. […] The bromodomain concentration in the eluates was measured by qPCR. […] All compounds for Kd measurements are distributed by acoustic transfer (non-contact dispensing) in 100% DMSO. The compounds were then diluted directly into the assays such that the final concentration of DMSO was 0.09%. Most Kds were determined using a compound top concentration=10,000 nM. If the initial Kd determined was <0.169 nM (the lowest concentration tested), the measurement was repeated with a serial dilution starting at a lower top concentration. Binding Constants (Kds): Binding constants (Kds) were calculated with a standard dose-response curve using the Hill equation: The Hill Slope was set to −1. Curves were fitted using a non-linear least square fit with the Levenberg-Marquardt algorithm.

[10] = target: T10, BRD8(1) (Homo sapiens, UniProt Q9H0E9); test: BROMOscan Kd determination BRD8(1); type: binding
T10 construct: T7 phage strains displaying bromodomains were grown; host or cells: T7 phage in E. coli derived from BL21
Description: as §2

[11] = target: T11, CREBBP (Homo sapiens, UniProt Q92793); test: BROMOscan Kd determination CREBBP; type: binding
T11 construct: T7 phage strains displaying bromodomains were grown; host or cells: T7 phage in E. coli derived from BL21
Description: as §2

[12] = target: T12, TRIM24(PHD, Bromo) (Homo sapiens, UniProt O15164); test: BROMOscan Kd determination TRIM24(PHD, Bromo.); type: binding
T12 construct: T7 phage strains displaying bromodomains were grown in parallel; host or cells: T7 phage grown in E. coli host derived from BL21
Description: as §2

[13] = target: T13, BAZ2A (Homo sapiens, UniProt Q9UIF9); test: BROMOscan Kd determination BAZ2A; type: binding
T13 construct: T7 phage strains displaying bromodomains were grown in parallel; made in house; host or cells: T7 phage grown in an E. coli host derived from the BL21 strain
Description: as §2

[14] = target: T2, TAF1L(2); test: BROMOscan Kd determination TAF1L(2); type: binding
Description: as §2

[15] = target: T14, TAF1(2) (Homo sapiens, UniProt P21675); test: BROMOscan Kd determination TAF1(2); type: binding
T14 construct: FALZ, PBRM1-BD2, BPRM1-BDS, TAF1-BD2, TAF1L-BD2; host or cells: T7 phage grown in E. coli host derived from BL21
Description: as §2

T2 sequence (Q8IZX4 1517-1626 limits assumed): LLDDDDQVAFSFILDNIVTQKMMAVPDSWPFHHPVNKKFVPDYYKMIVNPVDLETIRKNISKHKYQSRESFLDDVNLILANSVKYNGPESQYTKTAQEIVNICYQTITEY
T14 sequence (P21675 1519-1628 limits assumed): as the sequence (Q8IZX4 1517-1626 limits assumed) above, with M46V, V51M, I102V, I107L counted along it
T6 sequence (P25440 344-453 limits assumed): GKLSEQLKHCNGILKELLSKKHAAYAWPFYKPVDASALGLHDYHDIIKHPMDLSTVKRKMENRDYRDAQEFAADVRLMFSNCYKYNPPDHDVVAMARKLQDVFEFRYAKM
T7 sequence (Q9BXF3 434-538 limits assumed): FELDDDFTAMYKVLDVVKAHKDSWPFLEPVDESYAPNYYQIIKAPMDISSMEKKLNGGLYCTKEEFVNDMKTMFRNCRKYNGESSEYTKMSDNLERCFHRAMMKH
T12 sequence (O15164 824-1006 limits assumed): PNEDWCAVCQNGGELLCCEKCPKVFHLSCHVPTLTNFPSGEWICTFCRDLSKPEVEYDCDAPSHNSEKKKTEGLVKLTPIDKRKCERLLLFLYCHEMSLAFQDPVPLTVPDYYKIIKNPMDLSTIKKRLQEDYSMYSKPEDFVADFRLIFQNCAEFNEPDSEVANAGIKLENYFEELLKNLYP
T13 sequence (Q9UIF9 1793-1897 limits assumed): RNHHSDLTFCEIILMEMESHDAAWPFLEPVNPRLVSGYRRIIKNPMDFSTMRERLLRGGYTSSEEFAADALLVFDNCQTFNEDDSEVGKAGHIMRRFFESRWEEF
T5 sequence (Q86U86 653-763 limits assumed): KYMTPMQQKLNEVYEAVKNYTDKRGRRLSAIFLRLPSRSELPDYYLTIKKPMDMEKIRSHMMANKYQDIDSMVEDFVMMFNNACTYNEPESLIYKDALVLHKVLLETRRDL
T11 sequence (Q92793 1085-1192 limits assumed): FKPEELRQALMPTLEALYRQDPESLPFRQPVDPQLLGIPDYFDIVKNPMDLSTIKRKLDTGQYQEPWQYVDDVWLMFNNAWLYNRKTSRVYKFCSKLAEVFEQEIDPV
T4 sequence (Q9ULI0 951-1066 limits assumed): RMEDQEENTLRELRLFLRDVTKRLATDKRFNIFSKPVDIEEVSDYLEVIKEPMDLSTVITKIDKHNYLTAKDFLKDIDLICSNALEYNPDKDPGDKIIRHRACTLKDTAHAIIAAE
T10 sequence (Q9H0E9 706-811 limits assumed): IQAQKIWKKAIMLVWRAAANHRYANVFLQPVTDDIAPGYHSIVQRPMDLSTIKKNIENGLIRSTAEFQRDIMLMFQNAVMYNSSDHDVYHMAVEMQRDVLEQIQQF

| SMILES | % Ctrl @ 10 000 nM FALZ [1] | % Ctrl @ 10 000 nM TAF1L(2) [2] | % Ctrl @ 10 000 nM BRD7 [3] | % Ctrl @ 10 000 nM ATAD2B [4] | % Ctrl @ 10 000 nM PBRM1(5) [5] | % Ctrl @ 10 000 nM BRD2(2) [6] | % Ctrl @ 10 000 nM CECR2 [7] | Kd [8] | Kd [9] | Kd [10] | Kd [11] | Kd [12] | Kd [13] | Kd [14] | Kd [15] |
| --- | --- | --- | --- | --- | --- | --- | --- | --- | --- | --- | --- | --- | --- | --- | --- |
| COc1ccc(S(=O)(=O)N2CCOCC2)cc1NC(=O)c1[nH]c(C)c2c1CCCCC2=O [Compound 13, N-(2-methoxy-5-(morpholinosulfonyl)phenyl)-3-methyl-4-oxo-2,4,5,6,7,8-hexahydrocyclohepta[c]pyrrole-1-carboxamide] | 6.8 % Ctrl | 40 % Ctrl | 0 % Ctrl | 97 % Ctrl | 90 % Ctrl | 0.1 % Ctrl | 1.3 % Ctrl |  |  |  |  |  |  |  |  |
| Cc1[nH]c(-c2cc(N)ccc2Cl)c2c1C(=O)CCCC2 [Compound 23] |  |  |  |  |  |  |  | 0.42 µM | 1.2 µM | 2.6 µM | 0.42 µM | 5.3 µM | 1.9 µM | 6.8 µM | 4.1 µM |
